This is an account of results in patent publication US8269019B2, “Inhibitors” (Probiodrug AG, priority 2010, dated 2012).

For this assay, the target named is hQC (Homo sapiens, UniProt Q16769). Briefly: QC inhibitor assay (hQC inhibition, Ki and IC50). Type of assay: biochemical. Here is the method: All measurements were performed with a BioAssay Reader HTS-7000Plus for microplates (Perkin Elmer) at 30° C. QC activity was evaluated fluorometrically using H-Gln-βNA. The samples consisted of 0.2 mM fluorogenic substrate, 0.25 U pyroglutamyl aminopeptidase (Unizyme, Hørsholm, Denmark) in 0.2 M Tris/HCl, pH 8.0 containing 20 mM EDTA and an appropriately diluted aliquot of QC in a final volume of 250 μl. Excitation/emission wavelengths were 320/410 nm. The assay reactions were initiated by addition of glutaminyl cyclase. QC activity was determined from a standard curve of β-naphthylamine under assay conditions. One unit is defined as the amount of QC catalyzing the formation of 1 μmol pGlu-βNA from H-Gln-βNA per minute under the described conditions.
hQC, sequence (Q16769 29-361): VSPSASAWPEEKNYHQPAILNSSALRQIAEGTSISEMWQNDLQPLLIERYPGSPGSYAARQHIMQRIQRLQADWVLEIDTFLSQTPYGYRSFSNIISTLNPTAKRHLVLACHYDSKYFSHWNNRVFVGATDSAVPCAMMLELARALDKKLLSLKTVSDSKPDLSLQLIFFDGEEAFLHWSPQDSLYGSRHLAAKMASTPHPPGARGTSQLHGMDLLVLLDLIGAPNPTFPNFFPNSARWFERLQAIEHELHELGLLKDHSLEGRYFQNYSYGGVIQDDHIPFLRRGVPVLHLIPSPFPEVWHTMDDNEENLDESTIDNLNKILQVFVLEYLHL
In a second fluorometric assay, QC was activity determined using H-Gln-AMC as substrate. Reactions were carried out at 30° C. utilizing the NOVOStar reader for microplates (BMG labtechnologies). The samples consisted of varying concentrations of the fluorogenic substrate, 0.1 U pyroglutamyl aminopeptidase (Qiagen) in 0.05 M Tris/HCl, pH 8.0 containing 5 mM EDTA and an appropriately diluted aliquot of QC in a final volume of 250 μl. Excitation/emission wavelengths were 380/460 nm. The assay reactions were initiated by addition of glutaminyl cyclase. QC activity was determined from a standard curve of 7-amino-4-methylcoumarin under assay conditions. The kinetic data were evaluated using GraFit sofware.
This novel assay was used to determine the kinetic parameters for most of the QC substrates. QC activity was analyzed spectrophotometrically using a continuous method, that was derived by adapting a previous discontinuous assay (Bateman, R. C. J. 1989 J Neurosci Methods 30, 23-28) utilizing glutamate dehydrogenase as auxiliary enzyme. Samples consisted of the respective QC substrate, 0.3 mM NADH, 14 mM α-Ketoglutaric acid and 30 U/ml glutamate dehydrogenase in a final volume of 250 μl. Reactions were started by addition of QC and persued by monitoring of the decrease in absorbance at 340 nm for 8-15 min.
The initial velocities were evaluated and the enzymatic activity was determined from a standard curve of ammonia under assay conditions. All samples were measured at 30° C., using either the SPECTRAFIuor Plus or the Sunrise (both from TECAN) reader for microplates. Kinetic data was evaluated using GraFit software.
For inhibitor testing, the sample composition was the same as described above, except of the putative inhibitory compound added. For a rapid test of QC-inhibition, samples contained 4 mM of the respective inhibitor and a substrate concentration at 1 KM. For detailed investigations of the inhibition and determination of Ki-values, influence of the inhibitor on the auxiliary enzymes was investigated first. In every case, there was no influence on either enzyme detected, thus enabling the reliable determination of the QC inhibition. The inhibitory constant was evaluated by fitting the set of progress curves to the general equation for competitive inhibition using GraFit software.

In turn, `COC1=C(C)[C@H](c2cccc(F)c2F)N(c2ccc3nc[nH]c3c2)C1=O` (single isomer, unassigned) [Example 9] showed an IC50 of 18.7 nM and an inhibition constant (Ki) of 4.7 nM.
For `COC1=C(C)[C@@H](c2cccc(F)c2F)N(c2ccc3nc[nH]c3c2)C1=O` (single isomer, unassigned) [Example 10] the same measures were 169 nM and 32.3 nM.
In the case of `COC1=C(c2ccccc2)C(c2cc(F)cc(F)c2F)N(c2ccc3[nH]cnc3c2)C1=O` (stereo not drawn) [Example 5, 1-(1H-Benzo[d]imidazol-5-yl)-5-(2,3,5-trifluorophenyl)-3-methoxy-4-phenyl-1H-pyrrol-2(5H)-one], it took 317 nM to reach half-maximal inhibition (IC50) and the affinity, expressed as Ki, was 54.9 nM.
Regarding `COC1=C(C)C(c2cccc(F)c2F)N(c2ccc3nc[nH]c3c2)C1=O` (stereo not drawn) [Example 8, 1-(1H-Benzo[d]imidazol-6-yl)-5-(2,3-difluorophenyl)-3-methoxy-4-methyl-1H-pyrrol-2(5H)-one], half-maximal inhibition (IC50) required 117 nM and the inhibition constant Ki worked out at 20.9 nM.
The matching figures for `COC1=C(C)C(c2cccc(Cl)c2Cl)N(c2ccc3[nH]cnc3c2)C1=O` (stereo not drawn) [Example 17, 1-(1H-Benzo[d]imidazol-6-yl)-5-(2,3-dichlorophenyl)-3-methoxy-4-methyl-1H-pyrrol-2(5H)-one]: 557 nM and 46.6 nM.
For `COC1=C(C)C(c2ccc(C3CCCCC3)cc2)N(c2ccc3nc[nH]c3c2)C1=O` (stereo not drawn) [Example 25, 1-(1H-Benzo[d]imidazol-6-yl)-5-(4-cyclohexylphenyl)-3-methoxy-4-methyl-1H-pyrrol-2(5H)-one] the same measures were 195 nM and 45.3 nM.
The matching figures for `COC1=C(C)C(c2ccc(C3CCC(F)(F)CC3)cc2)N(c2ccc3nc[nH]c3c2)C1=O` (stereo not drawn) [Example 26, 1-(1H-Benzo[d]imidazol-6-yl)-5-(4-(4,4-difluorocyclohexyl)phenyl)-3-methoxy-4-methyl-1H-pyrrol-2(5H)-one]: 292 nM and 36.2 nM.
Consider `COC1=C(C)C(c2ccc(C3CCC(N4CCOCC4)CC3)cc2)N(c2ccc3nc[nH]c3c2)C1=O` (stereo not drawn) [Example 29, 1-(1H-Benzo[d]imidazol-6-yl)-3-methoxy-4-methyl-5-(4-(4-morpholinocyclo-hexyl)phenyl)-1H-pyrrol-2(5H)-one], for which half-maximal inhibition (IC50) was put at 221 nM and the Ki amounted to 18.7 nM.
For `COC1=C(C)C(C2CCC(c3ccccc3)CC2)N(c2ccc3nc[nH]c3c2)C1=O` (stereo not drawn) [Example 32, 1-(1H-Benzo[d]imidazol-6-yl)-3-methoxy-4-methyl-5-(4-phenylcyclohexyl)-1H-pyrrol-2(5H)-one] the same measures were 821 nM and 164 nM.

For orientation: IC50 means the point on the concentration scale where inhibition reaches its midpoint. Low values mean inhibition by little substance, high ones a need for much substance. The Ki is the equilibrium dissociation constant of an inhibitor or competing ligand from its target. A lower Ki goes with tighter binding.
